In PubChem BioAssay AID330 (DTP/NCI, 2004):
Values joined by “and” are separate entries in the source; they are usually repeats but may differ in a detail not shown here. Identical values can stand only once. Toxic doses and inconclusive results are not listed.

System: P388 leukemia ip, CD2F1 mice, survival T/C
Test: NCI In Vivo Anticancer Drug Screen. Data for tumor model P388 Leukemia (intraperitoneal) in CD2F1 (CDF1) mice
Settings: endpoint: median survival time, higher = longer survival
Method in brief: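 Mice carrying the transplanted tumor received test compound or vehicle. Survival was recorded in each group, and the value is the treated-group measurement divided by that of the vehicle-treated control group.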

[1] = dose: 100.0 mg/kg/injection, schedule: Q04DX003 (ip), vehicle: saline with Tween-80
[2] = dose: 200.0 mg/kg/injection, schedule: Q04DX003 (ip), vehicle: saline with Tween-80
[3] = dose: 400.0 mg/kg/injection, schedule: Q04DX003 (ip), vehicle: saline with Tween-80
[4] = dose: 25.0 mg/kg/injection, schedule: Q01DX005 (ip), vehicle: Klucel (hydroxypropylcellulose) (HPC)
[5] = dose: 50.0 mg/kg/injection, schedule: Q01DX005 (ip), vehicle: Klucel (hydroxypropylcellulose) (HPC)
[6] = dose: 100.0 mg/kg/injection, schedule: Q01DX005 (ip), vehicle: Klucel (hydroxypropylcellulose) (HPC)
[7] = dose: 200.0 mg/kg/injection, schedule: Q01DX005 (ip), vehicle: Klucel (hydroxypropylcellulose) (HPC)
[8] = dose: 100.0 mg/kg/injection, schedule: Q04DX002 (ip), vehicle: Klucel (hydroxypropylcellulose) (HPC)
[9] = dose: 200.0 mg/kg/injection, schedule: Q04DX002 (ip), vehicle: Klucel (hydroxypropylcellulose) (HPC)
[10] = dose: 400.0 mg/kg/injection, schedule: Q04DX002 (ip), vehicle: Klucel (hydroxypropylcellulose) (HPC)

For Cc1ccc(S(=O)(=O)OCCOc2ccc3ccccc3c2-c2c(OCCOc3ccc4ccccc4c3-c3c(OCCOS(=O)(=O)c4ccc(C)cc4)ccc4ccccc34)ccc3ccccc23)cc1, the T/C (dose: 100.0 mg/kg/injection, schedule: Q01DX001 (ip), vehicle: saline with Tween-80) was 101 % of control, the T/C (dose: 200.0 mg/kg/injection, schedule: Q01DX001 (ip), vehicle: saline with Tween-80) was 97 % of control and the T/C (dose: 400.0 mg/kg/injection, schedule: Q01DX001 (ip), vehicle: saline with Tween-80) was 97 % of control.
CC(C)=CCC(OC(=O)CC(C)(C)O)C1=CC(=O)c2c(O)ccc(O)c2C1=O (stereo not given) was tested, and the T/C (dose: 18.75 mg/kg/injection, schedule: Q01DX005 (ip), vehicle: Klucel (hydroxypropylcellulose) (HPC)) was 90 % of control and the T/C (dose: 37.5 mg/kg/injection, schedule: Q01DX005 (ip), vehicle: Klucel (hydroxypropylcellulose) (HPC)) was 100 % of control.
For c1ccc(C2SC(c3ccccc3)SC(c3ccccc3)S2)cc1 (stereo not given), the T/C (dose: 50.0 mg/kg/injection, schedule: Q01DX009 (ip), vehicle: Klucel (hydroxypropylcellulose) (HPC)) was 109 % of control, the T/C (dose: 100.0 mg/kg/injection, schedule: Q01DX009 (ip), vehicle: Klucel (hydroxypropylcellulose) (HPC)) was 107 % of control and the T/C (dose: 200.0 mg/kg/injection, schedule: Q01DX009 (ip), vehicle: Klucel (hydroxypropylcellulose) (HPC)) was 108 % of control. The T/C (dose: 400.0 mg/kg/injection, schedule: Q01DX009 (ip), vehicle: Klucel (hydroxypropylcellulose) (HPC)) was 106 % of control.
Cc1cccc(NNC(=S)Nc2ccccc2)c1 was tested, and the T/C [1] was 95 % of control, the T/C [2] was 100 % of control and the T/C [3] was 90 % of control.
In the case of COc1ccc2c(c1OC)C1=NCCc3cc4c(cc3C1(OC)C2=O)OCO4 (stereo not given), the T/C [4] is reported as 111 % of control, the T/C [5] is reported as 99 % of control and the T/C [6] is reported as 109 % of control. The T/C [7] was 98 % of control.
With Nc1c(Cl)c(Cl)cc(Cl)c1Cl the T/C [1] was 100 % of control, the T/C [2] was 104 % of control and the T/C [3] was 104 % of control.
CN1c2ccccc2SC1(C)CCC(=O)O (stereo not given) was tested, and the T/C (dose: 60.0 mg/kg/injection, schedule: Q01DX005 (ip), vehicle: Klucel (hydroxypropylcellulose) (HPC)) was 105 % of control and the T/C (dose: 120.0 mg/kg/injection, schedule: Q01DX005 (ip), vehicle: Klucel (hydroxypropylcellulose) (HPC)) was 104 % of control.
In the case of O=C(CC([Se]c1ccccc1)c1ccccc1)c1ccccc1 (stereo not given), the T/C (dose: 50.0 mg/kg/injection, schedule: Q01DX009 (ip), vehicle: saline with Tween-80) is reported as 109 % of control, the T/C (dose: 100.0 mg/kg/injection, schedule: Q01DX009 (ip), vehicle: saline with Tween-80) is reported as 109 % of control and the T/C (dose: 200.0 mg/kg/injection, schedule: Q01DX009 (ip), vehicle: saline with Tween-80) is reported as 95 % of control.
In the case of CCCCCC(CN(C)C)C(O)/C=C/c1ccc(Cl)c(Cl)c1 (stereo not given), the T/C (dose: 12.5 mg/kg/injection, schedule: Q01DX009 (ip), vehicle: saline) is reported as 109 % of control and the T/C (dose: 25.0 mg/kg/injection, schedule: Q01DX009 (ip), vehicle: saline) is reported as 107 % of control.
For N#CN.[Pb], the T/C [4] was 115 % of control and 94 % of control, the T/C [5] was 101 % of control (2×) and 104 % of control and the T/C [6] was 107 % of control and 109 % of control and 110 % of control. For the same molecule, the T/C [7] was 111 % of control.
COc1cc2c(cc1OC)[C@@]1(C[C@H]1CO)OCC2 was tested, and the T/C [8] was 100 % of control, the T/C [9] was 98 % of control and the T/C [10] was 95 % of control.
In the case of Cc1cccc(=O)[n-]1.Cc1cccc(=O)[n-]1.Cc1cccc(=O)[n-]1.Cc1cccc(=O)[n-]1.[Cr+2].[Cr+2], the T/C [8] is reported as 90 % of control, the T/C [9] is reported as 110 % of control and the T/C [10] is reported as 120 % of control.
With CCOC(=O)N1CCN(C(=O)c2nc3ccccc3[nH]2)CC1 the T/C [5] was 99 % of control, the T/C [6] was 101 % of control and the T/C [7] was 95 % of control.
In the case of CSC(=S)n1nc(-c2ccccc2)c(N=Nc2ccccc2[N+](=O)[O-])c1-c1ccccc1, the T/C [8] is reported as 105 % of control and the T/C [9] is reported as 97 % of control.
In the case of Cn1nnnc1CC(=O)O, the T/C (dose: 100.0 mg/kg/injection, schedule: Q04DX003 (ip), vehicle: saline) is reported as 99 % of control, the T/C (dose: 200.0 mg/kg/injection, schedule: Q04DX003 (ip), vehicle: saline) is reported as 108 % of control and the T/C (dose: 400.0 mg/kg/injection, schedule: Q04DX003 (ip), vehicle: saline) is reported as 103 % of control.
For C(=C\CN(Cc1ccccc1)Cc1ccccc1)/CN(Cc1ccccc1)Cc1ccccc1, the T/C (dose: 50.0 mg/kg/injection, schedule: Q04DX003 (ip), vehicle: Klucel (hydroxypropylcellulose) (HPC)) was 95 % of control, the T/C (dose: 100.0 mg/kg/injection, schedule: Q04DX003 (ip), vehicle: Klucel (hydroxypropylcellulose) (HPC)) was 90 % of control and the T/C (dose: 200.0 mg/kg/injection, schedule: Q04DX003 (ip), vehicle: Klucel (hydroxypropylcellulose) (HPC)) was 90 % of control.
For CCCN(CCC)C(=O)C(c1ccccc1)C1(O)CCCC1 (stereo not given), the T/C [5] was 101 % of control, the T/C [6] was 102 % of control and the T/C [7] was 102 % of control.
